Assay results as given in a compilation of properties of binary mixtures (doi:10.1098/rsos.241459/v2/response1).

Test: xn = mol fraction of the nth substance listed
Conditions: 298.15 K, 100 kPa

SMILES	electrical conductivity (x2 = 0)	viscosity (x2 = 0)	viscosity (x1 = 0.0895)	electrical conductivity (x1 = 0.1758)	viscosity (x1 = 0.1758)	electrical conductivity (x1 = 0.3578)	viscosity (x1 = 0.3578)	electrical conductivity (x1 = 0.4397)	viscosity (x1 = 0.4397)	electrical conductivity (x1 = 0.6482)	viscosity (x1 = 0.6482)	viscosity (x1 = 0.8121)
OCCO + CCCC[n+]1ccn(C)c1.F[B-](F)(F)F	0.001 S/m	17.41 mPa·s	–	–	–	–	–	–	–	–	–	–
CCCC[n+]1ccn(C)c1.F[B-](F)(F)F + OCCO	–	–	15.5 mPa·s	0.63 S/m	15.52 mPa·s	0.727 S/m	18.87 mPa·s	0.766 S/m	21.3 mPa·s	0.577 S/m	31.97 mPa·s	51.8 mPa·s
